PMC10279527, “Structural basis of metabolite transport by the chloroplast outer envelope channel OEP21” (Nature Structural & Molecular Biology, 2023)
“And” between values parts separate entries of the source, which are not always exact repeats. Identical values can stand only once. Like-named read-outs stand apart in the source and are kept apart here.

Experiments:
OEP21 wt = target: T1, OEP21 wt (Pisum sativum, UniProt Q9SM57); test: SEC metabolite translocation assay with OEP21 WT proteoliposomes;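 for all read-outs here: control is liposomes reconstituted without protein, prepared alongside. Molecule content inside liposomes measured after Triton X-100 disruption. PD10 SEC runs done with or without ATP and/or MgCl2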; format: biochemical, garden pea; details: for Relative content (% of mean Control): Fig. 4f, WT proteoliposomes, molecules of increasing molecular weight
T1 construct: made in house

OEP21 = OEP21 (Pisum sativum, UniProt Q9SM57); test: Amide hydrogen exchange NMR (CLEANEX) of OEP21 L5; set-up: made in house; species or system garden pea; details: 2 mM ATP or 5 mM GAP; 303 K, pH 6.0
OEP21ΔL5 = target: T2, OEP21ΔL5 (Pisum sativum, UniProt Q9SM57, DEL70-80); test: NMR titrations of OEP21ΔL5 with metabolites; format: binding, garden pea; details: for Kd: KDs dLoop + GAP, dLoop (OEP21ΔL5), unit inferred
T2 construct: made in house; host or cells: Escherichia coli BL21(DE3) (described for OEP21)

[1] = target: T3, OEP21 variants (single point mutations, ΔL5) (Pisum sativum, UniProt Q9SM57, C109A); test: Fluorescence polarization binding of MANT-ATP to OEP21 variants; set-up: species or system garden pea; details: OEP21 variant C109A; for Kd: unit inferred;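 for all read-outs here: KD obtained by fitting fluorescence polarization data to a one-site binding model, each experiment run in triplicate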
T3 construct: made in house; host or cells: Escherichia coli BL21(DE3) (described for OEP21)

[2] = target: T4, OEP21 variants (single point mutations, ΔL5) (Pisum sativum, UniProt Q9SM57, R66W); test: as above; set-up: species or system garden pea; details: OEP21 variant R66W; for Kd: unit inferred
T4 construct: made in house; host or cells: Escherichia coli BL21(DE3) (described for OEP21)

[3] = target: T5, OEP21 variants (single point mutations, ΔL5) (Pisum sativum, UniProt Q9SM57, K104A); test: as above; set-up: species or system garden pea; details: OEP21 variant K104A; for Kd: unit inferred
T5 construct: made in house; host or cells: Escherichia coli BL21(DE3) (described for OEP21)

[4] = target: T6, OEP21 variants (single point mutations, ΔL5) (Pisum sativum, UniProt Q9SM57, R33A); test: as above; set-up: species or system garden pea; details: OEP21 variant R33A; for Kd: unit inferred
T6 construct: made in house; host or cells: Escherichia coli BL21(DE3) (described for OEP21)

[5] = target: T7, OEP21 variants (single point mutations, ΔL5) (Pisum sativum, UniProt Q9SM57, K19A); test: as above; set-up: species or system garden pea; details: OEP21 variant K19A; for Kd: unit inferred
T7 construct: made in house; host or cells: Escherichia coli BL21(DE3) (described for OEP21)

[6] = target: T8, OEP21 variants (single point mutations, ΔL5) (Pisum sativum, UniProt Q9SM57, R66A); test: as above; set-up: species or system garden pea; details: OEP21 variant R66A; for Kd: unit inferred
T8 construct: made in house; host or cells: Escherichia coli BL21(DE3) (described for OEP21)

[7] = target: T9, OEP21 variants (single point mutations, ΔL5) (Pisum sativum, UniProt Q9SM57, R84A); test: as above; set-up: species or system garden pea; details: OEP21 variant R84A; for Kd: unit inferred
T9 construct: made in house; host or cells: Escherichia coli BL21(DE3) (described for OEP21)

[8] = target: T10, OEP21 variants (single point mutations, ΔL5) (Pisum sativum, UniProt Q9SM57, R174A); test: as above; set-up: species or system garden pea; details: OEP21 variant R174A; for Kd: unit inferred
T10 construct: made in house; host or cells: Escherichia coli BL21(DE3) (described for OEP21)

[9] = target: T11, OEP21 variants (single point mutations, ΔL5) (Pisum sativum, UniProt Q9SM57, R142A); test: as above; set-up: species or system garden pea; details: OEP21 variant R142A; for Kd: unit inferred
T11 construct: made in house; host or cells: Escherichia coli BL21(DE3) (described for OEP21)

[10] = target: T12, OEP21 variants (single point mutations, ΔL5) (Pisum sativum, UniProt Q9SM57, R157A); test: as above; set-up: species or system garden pea; details: OEP21 variant R157A; for Kd: unit inferred
T12 construct: made in house; host or cells: Escherichia coli BL21(DE3) (described for OEP21)

[11] = target: T13, OEP21 variants (single point mutations, ΔL5) (Pisum sativum, UniProt Q9SM57, R51A); test: as above; set-up: species or system garden pea; details: OEP21 variant R51A, unit inferred
T13 construct: made in house; host or cells: Escherichia coli BL21(DE3) (described for OEP21)

[12] = target: OEP21 variants (single point mutations, ΔL5); test: as above; set-up: species or system garden pea; details: OEP21 variant dL5; for Kd: unit inferred
[13] = target: T14, OEP21 variants (single point mutations, ΔL5) (Pisum sativum, UniProt Q9SM57, R140A); test: as above; set-up: species or system garden pea; details: OEP21 variant R140A; for Kd: unit inferred
T14 construct: made in house; host or cells: Escherichia coli BL21(DE3) (described for OEP21)

[14] = target: T15, OEP21 variants (single point mutations, ΔL5) (Pisum sativum, UniProt Q9SM57, K90A); test: as above; set-up: species or system garden pea; details: OEP21 variant K90A; for Kd: unit inferred
T15 construct: made in house; host or cells: Escherichia coli BL21(DE3) (described for OEP21)

[15] = target: T16, OEP21 variants (single point mutations, ΔL5) (Pisum sativum, UniProt Q9SM57, N164R/R66A); test: as above; set-up: species or system garden pea; details: OEP21 variant R66A/N164R; for Kd: unit inferred
T16 construct: made in house; host or cells: Escherichia coli BL21(DE3) (described for OEP21)

[16] = individual determinations, read-out: KD1-KD3

Q: How did the “Relative GAP content (% of mean Control)” value (OEP21 wt; ED Fig. 10a, WT 0.05uM, Mean) turn out when O=C[C@H](O)COP(=O)(O)O [GAP, D-glyceraldehyde-3-phosphate] was run?
A: Its value is 95.6446 % of mean Control.

Q: What about the “Relative GAP content (% of mean Control)” value (OEP21 wt; ED Fig. 10a, WT 0.5uM, Mean) of the same compound?
A: Its value is 62.4352 % of mean Control.

Q: What about the “Relative GAP content (% of mean Control)” value (OEP21 wt; ED Fig. 10a, WT 5uM, Mean) of the same compound?
A: The value was 38.701 % of mean Control.

Q: And the “Relative GAP content (% of mean Control)” value (OEP21 wt; ED Fig. 10b, +ATP (2 mM per legend), OEP21 0.05uM, Mean)?
A: The value was 91.3817 % of mean Control.

Q: And the “Relative GAP content (% of mean Control)” value (OEP21 wt; ED Fig. 10b, +ATP (2 mM per legend), OEP21 0.5uM, Mean)?
A: Its value is 64.3295 % of mean Control.

Q: What about the “Relative GAP content (% of mean Control)” value (OEP21 wt; ED Fig. 10b, +ATP (2 mM per legend), OEP21 5uM, Mean) of the same compound?
A: Its value is 54.5372 % of mean Control.

Q: What about the “Relative GAP content (% of mean Control)” value (OEP21 wt; ED Fig. 10c, WT, 0.05M NaCl, Mean) of the same compound?
A: Its value is 38.1976 % of mean Control.

Q: What about the “Relative GAP content (% of mean Control)” value (OEP21 wt; ED Fig. 10c, WT, 1M NaCl, Mean) of the same compound?
A: The value was 59.8192 % of mean Control.

Q: What about the “Relative GAP content (% of mean Control)” value (OEP21 wt; ED Fig. 10c, WT, […] NaCl, Mean) of the same compound?
A: The value was 46.186 % of mean Control.

Q: What about the “Relative content (% of mean Control)” value (OEP21 wt; Mean) of the same compound?
A: Its value is 48.3557 % of mean Control.

Q: And the “Relative content (% of mean Control)” value (OEP21 wt; single replicates)?
A: Its value is 46.601 % of mean Control and 48.0754 % of mean Control and 50.3906 % of mean Control.

Q: And the “Relative GAP content (% of mean Control)” value (OEP21 wt; Fig. 4d, WT, 5mM ATP, Mean)?
A: Its value is 40.9262 % of mean Control.

Q: And the “Relative GAP content (% of mean Control)” value (OEP21 wt; Fig. 4d, WT, 10mM MgCl2+5mM ATP, Mean)?
A: Its value is 54.2808 % of mean Control.

Q: And the “Relative GAP content (% of mean Control)” value (OEP21 wt; Fig. 4d, WT, 10mM MgCl2, Mean)?
A: The value was 63.8331 % of mean Control.

Q: And the “passage through the OEP21 channel (in words)” value (OEP21 wt; proteoliposomes, SEC, deadtime ~4 min)?
A: Its value is “passed through the channel”.

Q: What about the “amide hydrogen exchange rates in L5 in the complex (in words)” value (OEP21) of the same compound?
A: Its value is “reduced”.

Q: What about the Kd (OEP21ΔL5; Mean, mean) of the same compound?
A: Its Kd is 730 µM.

Q: And the Kd (OEP21ΔL5; individual KDs)?
A: Its Kd is 702 µM and 649 µM and 747 µM and 728 µM and 616 µM and 657 µM and 634 µM and 730 µM and 906 µM and 897 µM and 764 µM.

Q: And the “effect of L5 on binding affinity (in words)” value (OEP21ΔL5; NMR, Fig. 3h, OEP21 versus OEP21ΔL5)?
A: Its value is “approximately a fourfold increase in binding affinity”.

Q: Which results are given for “2′-(or-3′)-O-(N-methylanthraniloyl) adenosine 5′-triphosphate [Mant-ATP]”?
A: Kd [1, 16]: 0.19 µM and 0.22 µM and 0.213 µM; rel KD1-KD3 ([1]; relative to mean KD of wt): 1.044 and 1.209 and 1.17; Kd ([1]; read-out: mean KD): 0.208 µM; Kd [2, 16]: 0.275 µM and 0.175 µM and 0.227 µM; rel KD1-KD3 ([2]; relative to mean KD of wt): 1.511 and 1.247; Kd ([2]; read-out: mean KD): 0.226 µM; Kd [3, 16]: 0.209 µM and 0.297 µM and 0.203 µM; rel KD1-KD3 ([3]; relative to mean KD of wt): 1.148 and 1.632 and 1.115; Kd ([3]; read-out: mean KD): 0.236 µM; Kd [4, 16]: 0.142 µM and 0.125 µM and 0.126 µM; rel KD1-KD3 ([4]; relative to mean KD of wt): 0.7802 and 0.6868 and 0.6923; Kd ([4]; read-out: mean KD): 0.131 µM; Kd [5, 16]: 0.221 µM and 0.259 µM and 0.267 µM; rel KD1-KD3 ([5]; relative to mean KD of wt): 1.214 and 1.423 and 1.467; Kd ([5]; read-out: mean KD): 0.249 µM; Kd [6, 16]: 0.214 µM and 0.195 µM and 0.19 µM; rel KD1-KD3 ([6]; relative to mean KD of wt): 1.176 and 1.071 and 1.044; Kd ([6]; read-out: mean KD): 0.2 µM; Kd [7, 16]: 0.264 µM and 0.249 µM and 0.35 µM; rel KD1-KD3 ([7]; relative to mean KD of wt): 1.451 and 1.368 and 1.923; Kd ([7]; read-out: mean KD): 0.288 µM; Kd [8, 16]: 0.429 µM and 0.3 µM and 0.297 µM; rel KD1-KD3 ([8]; relative to mean KD of wt): 2.357 and 1.648 and 1.632; Kd ([8]; read-out: mean KD): 0.342 µM; Kd [9, 16]: 0.27 µM and 0.331 µM and 0.267 µM; rel KD1-KD3 ([9]; relative to mean KD of wt): 1.484 and 1.819 and 1.467; Kd ([9]; read-out: mean KD): 0.289 µM; Kd [10, 16]: 0.248 µM and 0.258 µM and 0.335 µM; rel KD1-KD3 ([10]; relative to mean KD of wt): 1.363 and 1.418 and 1.841; Kd ([10]; read-out: mean KD): 0.28 µM; Kd [11, 16]: 0.142 µM and 0.101 µM and 0.206 µM; Kd ([11]; read-out: mean KD): 0.15 µM; Kd [12, 16]: 0.214 µM and 0.204 µM and 0.297 µM; rel KD1-KD3 ([12]; relative to mean KD of wt): 1.176 and 1.121 and 1.632; Kd ([12]; read-out: mean KD): 0.238 µM; Kd [13, 16]: 0.233 µM and 0.286 µM and 0.307 µM; rel KD1-KD3 ([13]; relative to mean KD of wt): 1.28 and 1.571 and 1.687; Kd ([13]; read-out: mean KD): 0.275 µM; Kd [14, 16]: 0.293 µM and 0.271 µM and 0.247 µM; rel KD1-KD3 ([14]; relative to mean KD of wt): 1.61 and 1.489 and 1.357; Kd ([14]; read-out: mean KD): 0.27 µM; Kd [15, 16]: 0.172 µM and 0.184 µM and 0.211 µM; rel KD1-KD3 ([15]; relative to mean KD of wt): 1.011 and 1.159; Kd ([15]; read-out: mean KD): 0.189 µM
